Results published in patent publication US20090203693A1, “THERAPEUTIC AGENT FOR LIVER FIBROSIS” (Eisai R & D Management Co., Ltd., priority 2006, published 2009).

Each compound was assayed against T1, His6-DDR2 (cytoplasmic domain of human DDR2) (Homo sapiens, UniProt Q16832) (assay: Determination of DDR2 kinase inhibitory activity (His6-DDR2 tyrosine autophosphorylation, HTRF)). Conditions: cell free, ATP, room temperature 10 minutes, HTRF detection; read-out: IC50 (concentration of the test substance required for inhibiting His6-DDR2 kinase activity by 50%).
T1 construct: cytoplasmic domain of DDR2 having 6 histidines fused to the N-terminus thereof; made in house; host or cells: Sf9 insect cells (baculovirus, pFastBac-HT)
T1 sequence (Q16832 422-855 limits assumed): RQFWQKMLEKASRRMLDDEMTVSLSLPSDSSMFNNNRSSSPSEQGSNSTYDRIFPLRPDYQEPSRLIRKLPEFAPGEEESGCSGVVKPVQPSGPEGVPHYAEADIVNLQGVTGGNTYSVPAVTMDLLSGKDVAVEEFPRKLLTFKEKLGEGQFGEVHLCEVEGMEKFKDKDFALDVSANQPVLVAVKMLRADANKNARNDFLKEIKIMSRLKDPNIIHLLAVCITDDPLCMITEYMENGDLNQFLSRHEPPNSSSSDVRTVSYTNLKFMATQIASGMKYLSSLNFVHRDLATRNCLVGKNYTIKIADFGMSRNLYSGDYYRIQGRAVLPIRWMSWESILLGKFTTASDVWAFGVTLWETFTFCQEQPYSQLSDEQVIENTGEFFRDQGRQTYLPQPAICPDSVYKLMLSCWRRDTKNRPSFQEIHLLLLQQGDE
Assay type: biochemical
From the text: A DNA fragment of cytoplasmic domain of human DDR2 (SEQ ID NO: 1) was isolated by PCR method (Expand High Fidelity (purchased from Roche)) according to a conventional technique using human brain cDNA library (purchased from Clontech) as a template and SEQ ID NO:3: 5′-[…]-3′ and SEQ ID NO:4: 5′-[…]-3′ (purchased from JBioS) as primers. This DNA fragment was inserted into a baculovirus transplacement vector (pFastBac™-HT (purchased from Invitrogen)) to obtain a recombinant construct. Insect cells (Spodoptera frugiperda 9 (Sf9 cells)) were transfected with this recombinant construct, thereby preparing a DDR2 recombinant baculovirus solution. For preparation of a recombinant baculovirus, we referred to a standard textbook (Bac-to-Bac Baculovirus Expression System (Invitrogen)).
The above-described DDR2 recombinant Baculovirus solution (0.07 mL) was added to Sf9 cells (7×10^7 cells) suspended in 2.5% FBS-containing SF-900II medium (purchased from Invitrogen) and shake-cultured at 27° C. for 72 hours. Then, this DDR2 recombinant Baculovirus-infected cells were subjected to centrifugation at 1,600 rpm at 4° C. for 6 minutes and the supernatant was removed. The precipitated infected cells were suspended in 10 mL of ice-cold PBS and centrifuged at 1,600 rpm at 4° C. for 6 minutes to remove the supernatant. The precipitated infected cells were suspended in 5 mL of ice-cold lysis buffer (50 mM Tris-HCl (pH 8.5), 5 mM 2-mercaptoethanol, 100 mM KCl, 1 mM PMSA, 1% (v/v) NP40), and centrifuged at 10,000 rpm at 4° C. for 10 minutes to obtain the supernatant.
This supernatant was added to a Ni-NTA agarose column (1.5 mL (purchased from Qiagen)) equilibrated with 5 mL of buffer A (20 mM Tris-HCl (pH 8.5), 5 mM 2-mercaptoethanol, 500 mM KCl, 20 mM imidazole, 10% (v/v) glycerol). This column was sequentially washed with 10 mL of buffer A, 2 mL of buffer B (20 mM Tris-HCl (pH8.5), 5 mM 2-mercaptoethanol, 1 M KCl, 10% (v/v) glycerol) and 2 mL of buffer A. Subsequently, 4 mL of buffer C (20 mM Tris-HCl (pH 8.5), 5 mM 2-mercaptoethanol, 100 mM KCl, 100 mM imidazole, 10% (v/v) glycerol) was added to obtain an eluate. This eluate was placed in a dialysis membrane (purchased from Spectrum Medical Industries) and dialyzed against 1 L of dialysis buffer (20 mM Tris-HCl, 10% (v/v) glycerol, 1 mM dithiothreitol, 0.1 mM Na3VO4, 0.1 mM EGTA) at 4° C. overnight. After dialysis, a portion of the eluate was subjected to SDS-PAGE and an amount of the recombinant protein detected at a molecular weight of about 40 kDa (His6-DDR2 (cytoplasmic domain of DDR2 having 6 histidines fused to the N-terminus thereof)) by Coomassie brilliant blue staining was quantitated using BSA as a standard substance.
To each well of a 96-well black half plate (purchased from Corning, Product No: 3694), 20 ng of His6-DDR2, 35 μL of 25 mM Hepes solution (pH 7.4) containing 14 mM MgCl2 and a test substance dissolved in dimethylsulfoxide (at 100-fold dilution with 1% BSA; 5 μL) were added to a total amount of 40 μL. To this, […] of 50 μM ATP (purchased with Sigma) diluted with 25 mM Hepes solution was added and incubated at room temperature for 10 minutes. Thereafter, 10 μL of 50 mM EDTA (pH 8.0) (purchased from Wako Pure Chemical Industries) was added to terminate the kinase reaction.
Tyrosine-phosphorylated DDR2 was detected using homogeneous time resolved fluorescence (HTRF) technique (Analytical Biochemistry, 269, 94-104, 1999). Specifically, to each well of the reaction solutions mentioned above, 20 μL of 25 mM Hepes solution containing 1 M KF, 4.75 ng of europium cryptate-labeled anti-phosphorylated tyrosine antibody (Eu(K)-PT66) and 100 ng of XL665-labeled anti-His antibody (XL665-Anti-His) was added. This reaction solution was incubated at room temperature overnight. Thereafter, fluorescence intensities of each well at 665 nm and 620 nm were measured under irradiation at an excitation wavelength of 337 nm using Discovery HTRF microplate analyzer (from Packard). […]

Point of comparison: CCNC(=O)Nc1ccc(Oc2ccnc3cc(OC[C@H](O)CN4CCCC4)c(C(=O)NC)cc23)cc1Cl [Compound 22, N6-methyl-4-(3-chloro-4-(((ethylamino)carbonyl)amino)phenoxy)-7-((2R)-2-hydroxy-3-(1-pyrrolidino)propoxy)-6-quinolinecarboxamide], IC50 0.4 nM. Against it:
- COc1ccc(NC(=O)Nc2ccc(Oc3ccnc4cc(OC)c(OC)cc34)cc2)cc1 [Compound 1, N-(4-methoxyphenyl)-N′-(4-((6,7-dimethoxy-4-quinolinyl)oxy)phenyl)urea] — 6.7-fold lower, 0.06 nM
- CCCCNC(=O)Nc1ccc(Oc2ccnc3cc(OC)c(OC)cc23)cc1 [Compound 2, N-n-butyl-N′-(4-((6,7-dimethoxy-4-quinolinyl)oxy)phenyl)urea] — 18-fold higher, 7.2 nM
- COc1cc2nccc(Oc3ccc(NC(=O)Nc4cccc(C(N)=O)c4)cc3)c2cc1OC [Compound 4, N-(3-carbamoylphenyl)-N′-(4-((6,7-dimethoxy-4-quinolinyl)oxy)phenyl)urea] — 3.2-fold higher, 1.3 nM
- COc1cc2nccc(Oc3ccc(NC(=O)Nc4cccc(SC)c4)cc3)c2cc1OC [Compound 5, N-(3-methylthiophenyl)-N′-(4-((6,7-dimethoxy-4-quinolinyl)oxy)phenyl)urea] — 3-fold higher, 1.2 nM
- COc1cc2nccc(Oc3ccc(NC(=O)Nc4cccc(S(C)(=O)=O)c4)cc3)c2cc1OC [Compound 6, N-(3-methylsulfonylphenyl)-N′-(4-((6,7-dimethoxy-4-quinolinyl)oxy)phenyl)urea] — 2.8-fold higher, 1.1 nM
- COCCOc1cc2nccc(Oc3ccc(NC(=O)Nc4cccc(S(C)(=O)=O)c4)c(F)c3)c2cc1C#N [Compound 7, N-(4-(6-cyano-7-(2-methoxyethoxy)-4-quinolyl)oxy-2-fluorophenyl)-N′-(3-methylsulfonylphenyl)urea] — 1.6-fold higher, 0.63 nM
- COc1cc2nccc(Oc3ccc(NC(=O)Nc4ccc(F)cc4)c(F)c3)c2cc1C(N)=O [Compound 8, 4-(4-((4-fluoroanilino)carbonyl)amino-3-fluorophenoxy)-7-methoxy-6-quinoline carboxamide] — 3-fold higher, 1.2 nM
- COc1cc2nccc(Oc3ccc4c(ccn4C(=O)Nc4ccc(F)cc4)c3)c2cc1OC [Compound 9, 6,7-dimethoxy-4-(5-(1-(4-fluorophenylcarbamoyl)-indolyl)oxy)quinoline] — 4.7-fold higher, 1.9 nM
- COc1cc2nccc(Oc3ccc(NC(=O)NCCCSC)c(F)c3)c2cc1C(N)=O [Compound 10, 4-(3-fluoro-4-((3-methylthiopropylamino)carbonyl)aminophenoxy)-7-methoxy-6-quinolinecarboxamide] — 3.8-fold higher, 1.5 nM
- COc1cc2nccc(Oc3ccc(NC(=O)NC4CC4)c(Cl)c3)c2cc1C(N)=O [Compound 11, 4-(3-chloro-4-(cyclopropylaminocarbonyl)aminophenoxy)-7-methoxy-6-quinolinecarboxamide] — 2.3-fold higher, 0.91 nM
- COc1cc2nccc(Oc3ccc4c(ccn4C(=O)NC4CC4)c3)c2cc1C(N)=O [Compound 12, 6-carbamoyl-4-(1-cyclopropylcarbamoyl-1H-indole-5-yloxy)-7-methoxyquinoline] — 2.7-fold lower, 0.15 nM
- COCCNC(=O)c1cc2c(Oc3ccc(NC(=O)NC4CC4)c(Cl)c3)ccnc2cc1OC [Compound 13, N6-(2-methoxyethyl)-4-(3-chloro-4-(((cyclopropylamino)carbonyl)amino)phenoxy)-7-methoxy-6-quinolinecarboxamide] — 45-fold higher, 18 nM
- CN1CCC(C(=O)Nc2cc(Oc3ccc4c(ccn4C(=O)Nc4ccccc4)c3)ccn2)CC1 [Compound 14, N1-phenyl-5-((2-(((1-methyl-4-piperidyl)carbonyl)amino)-4-pyridyl)oxy)-1H-1-indolecarboxamide] — 1.7-fold lower, 0.24 nM
- N#Cc1cc2c(Oc3ccc(Cl)c(NC(=O)NC4CC4)c3)ccnc2cc1OCCN1CCCC1 [Compound 15, N-(2-chloro-5-((6-cyano-7-(2-(1-pyrrolidino)ethoxy)-quinolyl)oxy)phenyl)-N′-cyclopropylurea] — 2100-fold higher, 822 nM
- CNC(=O)Nc1cc(Oc2ccnc3cc(OC)c(C(=O)NC)cc23)ccc1Cl [Compound 16, N6-methyl-4-(4-chloro-3-(((methylamino)carbonyl)amino)phenoxy)-7-methoxy-6-quinolinecarboxamide] — 4700-fold higher, 1890 nM
- N#Cc1cc2c(Oc3ccc(Cl)c(NC(=O)NC4CC4)c3)ccnc2cc1OC[C@H](O)CN1CCCC1 [Compound 17] — 52-fold higher, 20.8 nM
- CNC(=O)c1cc2c(Oc3ccc(NC(=O)NC4CC4)c(Cl)c3)ccnc2cc1OCCOC [Compound 18, N6-methyl-4-(3-chloro-4-(((cyclopropylamino)carbonyl)amino)phenoxy)-7-(2-methoxyethoxy)-6-quinolinecarboxamide] — the same, 0.4 nM
- CCNC(=O)Nc1ccc(Oc2ccnc3cc(OC)c(C(=O)NC)cc23)cc1Cl [Compound 19, N6-methyl-4-(3-chloro-4-(((ethylamino)carbonyl)amino)phenoxy)-7-methoxy-6-quinolinecarboxamide] — 440-fold higher, 178 nM
- CCNC(=O)Nc1ccc(Oc2ccnc3cc(OC)c(C(=O)NCC)cc23)cc1Cl [Compound 20, N6-ethyl-4-(3-chloro-4-(((ethylamino)carbonyl)amino)phenoxy)-7-methoxy-6-quinolinecarboxamide] — 1100-fold higher, 428 nM
- CCNC(=O)Nc1ccc(Oc2ccnc3cc(OC[C@H](O)CN(CC)CC)c(C(=O)NC)cc23)cc1Cl [Compound 21] — 70-fold higher, 28 nM
- CCNC(=O)Nc1ccc(Oc2ccnc3cc(OCC4CCN(C)CC4)c(C(=O)NC)cc23)cc1Cl [Compound 23, N6-methyl-4-(3-chloro-4-(((ethylamino)carbonyl)amino)phenoxy)-7-((1-methyl-4-piperidyl)methoxy)-6-quinolinecarboxamide] — 45-fold higher, 18 nM
